Measured values as given in BindingDB's records for doi:10.1021/acs.jmedchem.8b01908 (Chinese Academy of Sciences, 2019).
Positions of bridges follow the written chain, without caps; N, C: chain ends. Residues, ends and D or L forms follow the SMILES beside them.

Experiment: Inhibition of the intrinsic peri-cellular uPA in mouse CT26 cells assessed as reduction in cell invasion measured every hour by transwell assay

Compound	IC50
CC[C@H](C)[C@@H]1NC(=O)[C@H](Cc2ccc(O)cc2)NC(=O)[C@H](CCCNC(=N)N)NC(=O)[C@H](CO)NC(=O)[C@H](Cc2ccc(O)cc2)NC(=O)[C@H](C)NC(=O)[C@@H]2CCCN2C(=O)[C@@H](N)CSSC[C@@H](C(=O)O)NC(=O)CNC1=O (H-CPAYSRYIGC-OH; disulfide 1-10)	3.28 µM
CC[C@H](C)[C@@H]1NC(=O)[C@H](Cc2ccc(O)cc2)NC(=O)[C@H](CCCNC(=N)N)NC(=O)[C@H](CO)NC(=O)[C@H](Cc2ccc(O)cc2)NC(=O)[C@H](C)NC(=O)[C@@H]2CCCN2C(=O)[C@@H](NC(C)=O)CSSC[C@@H](C(N)=O)NC(=O)CNC1=O (Ac-CPAYSRYIGC-NH2; disulfide 1-10)	5.02 µM
CC(=O)N[C@H]1CSSC[C@@H](C(N)=O)NC(=O)[C@H](CC(=O)O)NC(=O)[C@H](CC(C)C)NC(=O)[C@H](Cc2ccc(O)cc2)NC(=O)[C@H](CCCNC(=N)N)NC(=O)[C@H](CO)NC(=O)[C@H](Cc2ccc(O)cc2)NC(=O)[C@H](C)NC(=O)[C@@H]2CCCN2C1=O (Ac-CPAYSRYLDC-NH2; disulfide 1-10)	39.4 µM
